Assay results as given in patent publication US6632793B1, “Immunological activity for a peptide of the limulus anti-LPS factor” (Centro de Ingenieria Genetica y Biotecnologia, priority 1997, dated 2003).
Where a SMILES comes first, the peptide text is derived from it.

Key:
[1] = test system: cytokine mRNA in human PBMCs; assay: Cytokine gene expression in human PBMCs by Ribonuclease Protection Assay (hck-1 probe set); type: cell-based; settings: 5 μM for 18 hours; FIG. 8
Experimental: The Ribonuclease Protection Assay (RPA) is a highly sensitive and specific method for the detection, quantification and characterization of RNA molecules (Gilman^32, M. In Current Protocols in Molecular Biology. J. Wiley and Sons, New York, p. 4.7.1-7.7.8. 1988 and Dent^33, A. L., Shaffer, A. L., Yu […]., 1997. Cytokine expression and germinal center formation by Bcl-2. […] Samples of total RNA from stimulated and nonstimulated human PBMCs were analyzed for distinct mRNA species by PharMingen's RiboQuantTM. Multi-Probe Ribonuclease Protection Assay System with the hck-1 probe template set (Cat. No. 45031P) which including mRNA species analyses for a different cytokine eg. (IL-5, IL-4, IL-10, IL-15, IL-9, IL-2, IL-13, IFN-γ). […] The identity and quantity of each mRNA species in the original RNA sample can then be determined based on the signal intensities given by the appropriately sized of protected probe fragment bands. Unprotected probe set and a probe for housekeeping gene transcripts are incorporating in order to identify and quantify the RNA molecules in the original samples. […] FIG 8: Samples of total RNA from stimulated human PBMCs with 5 μM of peptide for 18 hours were analyzed for distinct mRNA species by using […] […]

[2] = test system: bovine enterovirus on cell line MDBK; assay: Antiviral effect: inhibition of the cytopathic effect of bovine enterovirus on cell line MDBK; type: cell-based; settings: 10 μM, 20 μM and 40 μM; FIG. 5
Experimental: Determination of the antiviral activity was estimate by means of the inhibition of the cytopathic effect produced by a virus on cell line MDBK, essentially as is described in the example 1. The cells used in this approach were MDBK a kidney normal bovine cells line [ATCC No. 6071], which are infected with […] of bovine enterovirus. Increasing quantities of LALF peptide were used in order to induced protection in the-cells: 10 μM, 20 μM and 40 μM. In this case serial dilution's of human α-IFN 70 000 IU/ml (MRI, Freeze-dried Reference Human Recombinant Alpha Interferon) was used as standard in order to define unit of antiviral activity. One unit of antiviral activity is defining as the quantity of IFN able to produce a 50% inhibition of the viral replication.
The cells were treated with increasing quantities of peptide during 18 hours. Afterwards, the cells were challenged with a bovine enterovirus. Antiviral activity is referred as U/ml α-IFN.

human mononuclear cells = assay: Antiviral effect on Hep-2 cells of supernatant from human mononuclear cells stimulated with peptide; type: cell-based; settings: for Antiviral effect of supernatant, 1: supernatant on Hep-2, experiment 1; for Antiviral effect of supernatant, 2: supernatant on Hep-2, experiment 2; for Antiviral effect of supernatant, 3: supernatant on Hep-2, experiment 3; for Antiviral effect of supernatant, Mean: supernatant on Hep-2, mean of 3
Experimental: Then the cells were washed with saline solution and infected with […] of Mengo virus, provide by Institute of Molecular Biology, University of Zurich, which is multiplied in the cell line L929 murine fibroblasts. 18 h later degree of cell destruction was measured by fixation and staining, generally with crystal violet, for reading of cytophatic effect was used a photometer Ultramicroanalytical System (SUMA). A computer program in Pascal UCSD language for the microcomputer system was developed for all calculations and corrections (Ferrero et al., 1994, Biotecnologia Aplicada. Vol. 1:). In this case serial dilution's of human γ-IFN 70 000 IU/ml (MRI, Freeze-dried Reference Human Recombinant Gamma Interferon) was used as standard in order to define unit of antiviral activity. For this reason the antiviral protection shown by the peptide is related to International Units of γ-IFN (Ul/ml). As a negative control were used different peptides from proteins that bind endotoxin. LPS at 10 ng/ml was used as a positively control because is well known that it induced the production of IFNs (Manthey et al., 1994, J. Immunology. Vol. 153: 2653-2663). One unit of antiviral activity is define as the quantity of IFN able to produce an 50% inhibition of the viral replication.
Venous blood was obtained from healthy volunteers and Ficoll-Hypaque centrifugation, fractionated mononuclear cells. The mononuclear cells were washed and resuspended in endotoxin-free RPMI-1640 culture medium supplemented with 10% fetal calf serum. Concentration of 2×10^6 cells/ml were aliquoted into 24-well microtiter plates (Nunc, Denmark). The cells were then incubated with 14 and 28 μg/ml of different peptides: Limulus anti-LPS factor31-52 (LALF), Lipopolysaccharide Binding Protein86-99 (LBP) and 18 kDa Cationic Antimicrobial Protein108-128 (CAP-18), at 37° C. for 18 hours in 5% CO2. The cells were centrifuged at 3000 rpm for 5 min and then serial dilutions of supematants were assays for antiviral activity using the procedures described in the example 2.

[3] = In vivo toxicity after intravenous injection in mice (behavior, survival); design: species or system mice BalB/c
Experimental: This approach was developed in mice BalB/c between 6-8 old. The mice were injected intravenously with 50 μg of peptide in 0.1 ml [2.5 mg/kg of body weight] or saline solution as a control. The behavior of animals was observed each 4 hours during 24 h. Survival was followed for one week. Blood was collected for TNF-α quantification from the retroorbital sinus at the time 0 h. 6 h, 24 h and 48 h in the control group and peptide treated-mice. The concentration of TNF-α in mouse serum was determined using a specific ELISA kindly provided by Dr. W. Buurman (University Hospital Maastrich, The Netherlands).

[4] = mononuclear cells stimulated with 14 μg/ml for 18 h
[5] = mononuclear cells stimulated with 28 μg/ml for 18 h

Structure (SMILES): CC[C@H](C)[C@H](NC(=O)[C@H](CCCNC(=N)N)NC(=O)[C@H](Cc1ccc(O)cc1)NC(=O)[C@H](Cc1c[nH]cn1)NC(=O)[C@@H](N)CS)C(=O)N[C@@H](CCCCN)C(=O)N1CCC[C@H]1C(=O)N[C@H](C(=O)N[C@@H](Cc1ccccc1)C(=O)N[C@@H](CCCNC(=N)N)C(=O)N[C@@H](CCCNC(=N)N)C(=O)N[C@@H](CC(C)C)C(=O)N[C@@H](CCCCN)C(=O)N[C@@H](Cc1c[nH]c2ccccc12)C(=O)N[C@@H](CCCCN)C(=O)N[C@@H](Cc1ccc(O)cc1)C(=O)N[C@@H](CCCCN)C(=O)NCC(=O)N[C@@H](CCCCN)C(=O)N[C@@H](Cc1ccccc1)C(=O)N[C@@H](Cc1c[nH]c2ccccc12)C(=O)N[C@@H](CS)C(=O)O)[C@@H](C)O [LALF] (H-CHYRIKPTFRRLKWKYKGKFWC-OH)
- Cytokine gene expression in human PBMCs (in words) [1]: able to preferentially induce IFN-γ, IL-2 and IL-13 gene expression
- Protection of cell line MDBK against bovine enterovirus (in words) [2]: able to induce protection in the cell line MDBK in a doses dependent manner
- Release of protective mediator by human peripheral blood mononuclear cells (in words) (human mononuclear cells; 14 and 28 μg/ml, 18 h): induce them to release certain mediator capable of conferring protection to the Hep-2 cells against viral infections
- Antiviral effect of supernatant, 1 (human mononuclear cells; [4]): 28 IU/ml γ-IFN
- Antiviral effect of supernatant, 2 (human mononuclear cells; [4]): 27.6 IU/ml γ-IFN
- Antiviral effect of supernatant, 3 (human mononuclear cells; [4]): 20.4 IU/ml γ-IFN
- Antiviral effect of supernatant, Mean (human mononuclear cells; [4]): 25.3 IU/ml γ-IFN
- Antiviral effect of supernatant, 1 (human mononuclear cells; [5]): 28.4 IU/ml γ-IFN
- Antiviral effect of supernatant, 2 (human mononuclear cells; [5]): 28 IU/ml γ-IFN
- Antiviral effect of supernatant, 3 (human mononuclear cells; [5]): 20 IU/ml γ-IFN
- Antiviral effect of supernatant, Mean (human mononuclear cells; [5]): 25.4 IU/ml γ-IFN
- Toxicity in vivo (in words) ([3]; 50 μg [2.5 mg/kg] intravenously): not toxic in vivo
- Survival after intravenous injection (in words) ([3]; 50 μg in 0.1 ml [2.5 mg/kg] intravenously, followed one week): All mice [10 animals/group] survivor beyond of one week
